Source: the NIST ThermoML archive (doi:10.1021/je025606c)

Legend:
[1] = Liquid; for kinematic viscosity: 101.33 kPa, Capillary tube (Ostwald / Ubbelohde) method; for mass density: 1000 kPa, Vibrating tube method
[2] = molar heat capacity at constant pressure; settings: 1000 kPa, Liquid

CCCCOCCOCCOCCCC [5,8,11-trioxapentadecane]
Settings | kinematic viscosity, [1] [m2/s] | mass density, [1] [kg/m3] | molar heat capacity at constant pressure, [2] [J/K/mol]
283.15 K | 3.36e-06 | 891.6 | –
293.15 K | 2.69e-06 | 883.2 | –
303.15 K | 2.21e-06 | 875 | –
312.57 K | – | – | 456.53
313.15 K | 1.86e-06 | 866.8 | –
322.47 K | – | – | 460.9
323.15 K | 1.59e-06 | 858.5 | –
332.37 K | – | – | 465.49
333.15 K | 1.38e-06 | 850.4 | –
342.27 K | – | – | 470.51
343.15 K | 1.22e-06 | 842.1 | –
352.18 K | – | – | 475.75
353.15 K | 1.08e-06 | 833.7 | –
362.08 K | – | – | 480.33
363.15 K | 9.68e-07 | 824.9 | –
371.98 K | – | – | 486.88
373.15 K | 8.72e-07 | 816.5 | –
381.88 K | – | – | 493.65
383.15 K | 7.95e-07 | 807.9 | –
391.78 K | – | – | 500.42
393.15 K | 7.28e-07 | 799.4 | –
401.68 K | – | – | 505.44
403.15 K | 6.7e-07 | 790.8 | –
411.58 K | – | – | 512.21
413.15 K | 6.21e-07 | 782.1 | –
421.48 K | – | – | 517.89
423.15 K | 5.78e-07 | 773.3 | –

CCOCCOCCOCC [diethylene glycol diethyl ether]
Settings | kinematic viscosity, [1] [m2/s] | mass density, [1] [kg/m3] | molar heat capacity at constant pressure, [2] [J/K/mol]
283.15 K | 1.84e-06 | 917.4 | –
293.15 K | 1.5e-06 | 907.9 | –
303.15 K | 1.27e-06 | 898.4 | –
312.57 K | – | – | 349.11
313.15 K | 1.09e-06 | 889 | –
322.47 K | – | – | 351.22
323.15 K | 9.56e-07 | 879.5 | –
332.37 K | – | – | 353.33
333.15 K | 8.48e-07 | 870 | –
342.27 K | – | – | 355.44
343.15 K | 7.6e-07 | 860.2 | –
352.18 K | – | – | 358.68
353.15 K | 6.91e-07 | 850 | –
362.08 K | – | – | 360.79
363.15 K | 6.33e-07 | 840.2 | –
371.98 K | – | – | 364.85
373.15 K | 5.77e-07 | 830.3 | –
381.88 K | – | – | 368.9
383.15 K | 5.32e-07 | 820.4 | –
391.78 K | – | – | 372.15
393.15 K | 4.93e-07 | 810.3 | –
401.68 K | – | – | 377.01
403.15 K | 4.59e-07 | 800 | –
411.58 K | – | – | 380.75
413.15 K | 4.29e-07 | 789.7 | –
421.48 K | – | – | 384.8
423.15 K | 4.02e-07 | 779.2 | –
